Reference: patent publication US20250282799A1, “SUBSTITUTED PYRIDO[4,3-d]PYRIMIDINES AS KRAS MODULATORS” (Alterome Therapeutics, Inc., priority 2023, published 2025)

test system: KRAS G12V dependent lung adenocarcinoma cell line, NCI-H441; assay: Cellular pERK (Thr202/Tyr204) FRET/HTRF assay; assay type: cell-based; conditions: Homo sapiens, NCI-H441, cellular pERK (Thr202/Tyr204) HTRF, NCI-H441 cells
Procedure, shortened: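 Read-out is a wash-free FRET sandwich immunoassay for endogenous ERK1/2 phosphorylated on Thr202/Tyr204. Signal was measured in NCI-H441 lung adenocarcinoma cells after 1 hr compound exposure at 37 °C. IC50 values come from fitted concentration-response curves.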

IC50 | SMILES
500 to 10000 nM | [2H]C([2H])(Oc1nc(N2CCOC[C@H]3[C@H](F)[C@H]32)c2cc(Cl)c(-c3ccc(F)c4sc(N)c(C#N)c34)c(F)c2n1)[C@@]12CCCN1C[C@H](F)C2 (atropisomer, axis not shown; (aS)) [Example 352, 2-amino-4-((S)-6-chloro-8-fluoro-4-((1S,7S,8S)-8-fluoro-5-oxa-2-azabicyclo[5.1.0]octan-2-yl)-2-(((2R,7aS)-2-fluorotetrahydro-1H-pyrrolizin-7a(5H)-yl)methoxy-d2)quinazolin-7-yl)-7-fluorobenzo[b]thiophene-3-carbonitrile]
< 50 nM | [2H]C([2H])(F)Oc1c(F)cc(F)c2cc(N)cc(-c3ncc4c(N5CCOC[C@H]6[C@H](F)[C@H]65)nc(OC([2H])([2H])[C@@]56CCCN5C[C@H](F)C6)nc4c3F)c12 [Example 139, 6,8-difluoro-4-(8-fluoro-4-((1S,7S,8S)-8-fluoro-5-oxa-2-azabicyclo[5.1.0]octan-2-yl)-2-(((2R,7aS)-2-fluorotetrahydro-1H-pyrrolizin-7a(5H)-yl)methoxy-d2)pyrido[4,3-d]pyrimidin-7-yl)-5-(fluoromethoxy-d2)naphthalen-2-amine]
< 50 nM | [2H]C([2H])(Oc1nc(N2CCOC[C@H]3[C@H](F)[C@H]32)c2cnc(-c3cccc4ccc(Cl)c(C#C)c34)c(F)c2n1)[C@@]12CCCN1C[C@H](F)C2 [Example 318, (1S,7S,8S)-2-(7-(7-chloro-8-ethynylnaphthalen-1-yl)-8-fluoro-2-(((2R,7aS)-2-fluorotetrahydro-1H-pyrrolizin-7a(5H)-yl)methoxy-d2)pyrido[4,3-d]pyrimidin-4-yl)-8-fluoro-5-oxa-2-azabicyclo[5.1.0]octane]
500 to 10000 nM | [2H]C([2H])(Oc1nc(N2CCOC[C@@H]3[C@@H](F)[C@@H]32)c2c(OC)nc(-c3cccc4ccc(F)c(C#C)c34)c(F)c2n1)[C@@]12CCCN1C[C@H](F)C2 [Example 236, (1R,7R,8R)-2-(7-(8-ethynyl-7-fluoronaphthalen-1-yl)-8-fluoro-2-(((2R,7aS)-2-fluorotetrahydro-1H-pyrrolizin-7a(5H)-yl)methoxy-d2)-5-methoxypyrido[4,3-d]pyrimidin-4-yl)-8-fluoro-5-oxa-2-azabicyclo[5.1.0]octane]
< 50 nM | [2H]C([2H])(F)Oc1c(F)ccc2cc(N)cc(-c3ncc4c(N5CCOC[C@H]6[C@H](F)[C@H]65)nc(OC[C@@]56CCCN5C[C@@]5(CC5(F)F)C6)nc4c3F)c12 (single isomer, unassigned) [Example 229]
50 to 500 nM | Nc1cc(Cl)c(C(F)(F)F)c(-c2ncc3c(N4CCCC[C@H]5[C@H](F)[C@H]54)nc(OC[C@@]45CCCN4CC(=C(F)F)C5)nc3c2F)c1 [Example 369, 3-chloro-5-(2-(((S)-2-(difluoromethylene)tetrahydro-1H-pyrrolizin-7a(5H)-yl)methoxy)-8-fluoro-4-((1S,7R,8S)-8-fluoro-2-azabicyclo[5.1.0]octan-2-yl)pyrido[4,3-d]pyrimidin-7-yl)-4-(trifluoromethyl)aniline]
< 50 nM | [2H]C([2H])(Oc1nc(N2CCOC[C@H]3[C@H](F)[C@H]32)c2cnc(-c3cc(O)cc(Cl)c3C(F)(F)F)c(F)c2n1)[C@@]12CCCN1C[C@H](F)C2 [Example 298, 3-chloro-5-(8-fluoro-4-((1S,7S,8S)-8-fluoro-5-oxa-2-azabicyclo[5.1.0]octan-2-yl)-2-(((2R,7aS)-2-fluorotetrahydro-1H-pyrrolizin-7a(5H)-yl)methoxy-d2)pyrido[4,3-d]pyrimidin-7-yl)-4-(trifluoromethyl)phenol]
< 50 nM | [2H]C([2H])(Oc1nc(N2CCOC[C@H]3[C@H](F)[C@H]32)c2c(F)nc(-c3cc(N)cc4ccc(F)c(C#C)c34)c(F)c2n1)[C@@]12CCCN1C[C@H](F)C2 [Example 303, 4-(5,8-Difluoro-4-((1S,7S,8S)-8-fluoro-5-oxa-2-azabicyclo[5.1.0]octan-2-yl)-2-(((2R,7aS)-2-fluorotetrahydro-1H-pyrrolizin-7a(5H)-yl)methoxy-d2)pyrido[4,3-d]pyrimidin-7-yl)-5-ethynyl-6-fluoronaphthalen-2-amine]
500 to 10000 nM | [2H]C([2H])(Oc1nc(N2CCOC[C@H]3[C@H](F)[C@H]32)c2c(OC)nc(-c3cccc4ccc(F)c(C#C)c34)c(F)c2n1)[C@@]12CCCN1C[C@H](F)C2 [Example 235, (1S,7S,8S)-2-(7-(8-ethynyl-7-fluoronaphthalen-1-yl)-8-fluoro-2-(((2R,7aS)-2-fluorotetrahydro-1H-pyrrolizin-7a(5H)-yl)methoxy-d2)-5-methoxypyrido[4,3-d]pyrimidin-4-yl)-8-fluoro-5-oxa-2-azabicyclo[5.1.0]octane]
< 50 nM | [2H]C([2H])(F)Oc1c(F)ccc2cc(N)cc(-c3ncc4c(N5CCOC[C@H]6[C@H](F)[C@H]65)nc(OC[C@@]56CCCN5C/C(=C\F)C6)nc4c3F)c12 [Example 188, 6-Fluoro-4-(8-fluoro-4-((1S,7S,8S)-8-fluoro-5-oxa-2-azabicyclo[5.1.0]octan-2-yl)-2-(((S,Z)-2-(fluoromethylene)tetrahydro-1H-pyrrolizin-7a(5H)-yl)methoxy)pyrido[4,3-d]pyrimidin-7-yl)-5-(fluoromethoxy-d2)naphthalen-2-amine]
< 50 nM | [2H]C([2H])(Oc1nc(N2CCOC[C@H]3[C@H](F)[C@H]32)c2cnc(-c3cc(N)cc4ccc(F)c(C#C)c34)c(F)c2n1)[C@@]12CCCN1C[C@H](CC#N)C2 (single isomer, unassigned) [Example 315]

same assay, conditions: Homo sapiens, NCI-H441, cellular pERK HTRF, NCI-H441 (KRAS G12V) cells

IC50 | SMILES
< 50 nM | [2H]C([2H])(Oc1nc(N2CCOC[C@H]3[C@H](F)[C@H]32)c2cnc(-c3cc(O)cc4ccc(F)c(C#C)c34)c(C)c2n1)[C@@]12CCCN1CC(=C)C2 [Example 446, 5-Ethynyl-6-fluoro-4-(4-((1S,7S,8S)-8-fluoro-5-oxa-2-azabicyclo[5.1.0]octan-2-yl)-8-methyl-2-(((S)-2-methylenetetrahydro-1H-pyrrolizin-7a(5H)-yl)methoxy-d2)pyrido[4,3-d]pyrimidin-7-yl)naphthalen-2-ol]
< 50 nM | C#Cc1c(F)ccc2cc(N)cc(-c3ncc4c(N5CCOC[C@H]6[C@H](F)[C@H]65)nc(OC[C@]56CC(=C(F)F)CN5CCC65CC5)nc4c3C)c12 [Example 437, 4-(2-(((R)-6′-(difluoromethylene)tetrahydrospiro [cyclopropane-1,1′-pyrrolizin]-7a′(5′H)-yl)methoxy)-4-((1S,7S,8S)-8-fluoro-5-oxa-2-azabicyclo[5.1.0]octan-2-yl)-8-methylpyrido[4,3-d]pyrimidin-7-yl)-5-ethynyl-6-fluoronaphthalen-2-amine]

same assay, conditions: Homo sapiens, NCI-H441, pERK HTRF, NCI-H441 cells (KRAS G12V)

IC50 | SMILES
< 50 nM | [2H]C([2H])(F)Oc1c(F)c(F)cc2cc(N)cc(-c3ncc4c(N5CCOC[C@H]6[C@H](F)[C@H]65)nc(OC([2H])([2H])[C@@]56CCCN5C[C@H](F)C6)nc4c3F)c12 [Example 88, 6,7-Difluoro-4-(8-fluoro-4-((1S,7S,8S)-8-fluoro-5-oxa-2-azabicyclo[5.1.0]octan-2-yl)-2-(((2R,7aS)-2-fluorotetrahydro-1H-pyrrolizin-7a(5H)-yl)methoxy-d2)pyrido[4,3-d]pyrimidin-7-yl)-5-(fluoromethoxy-d2)naphthalen-2-amine]
< 50 nM | [2H]C([2H])([2H])Oc1c(F)c(F)c(F)c2cc(N)cc(-c3ncc4c(N5CCCO[C@H]6[C@H](F)[C@H]65)nc(OC([2H])([2H])[C@@]56CCCN5C[C@H](F)C6)nc4c3F)c12 [Example 77, 6,7,8-Trifluoro-4-(8-fluoro-4-((1R,7S,8R)-8-fluoro-2-oxa-6-azabicyclo[5.1.0]octan-6-yl)-2-(((2R,7aS)-2-fluorotetrahydro-1H-pyrrolizin-7a(5H)-yl)methoxy-d2)pyrido[4,3-d]pyrimidin-7-yl)-5-(methoxy-d3)naphthalen-2-amine]
< 50 nM | [2H]C([2H])(Oc1nc(N2CCC[C@H]3[C@H](F)[C@H]32)c2cnc(-c3cc(N)cc4cc(F)c(F)c(C#C)c34)c(F)c2n1)[C@@]12CCCN1C[C@H](F)C2 [Example 54, 5-Ethynyl-6,7-difluoro-4-(8-fluoro-4-((1S,6R,7S)-7-fluoro-2-azabicyclo[4.1.0]heptan-2-yl)-2-(((2R,7aS)-2-fluorotetrahydro-1H-pyrrolizin-7a(5H)-yl)methoxy-d2)pyrido[4,3-d]pyrimidin-7-yl)naphthalen-2-amine]
50 to 500 nM | [2H]C([2H])(Oc1nc(N2CCCC[C@H]3[C@H](F)[C@H]32)c2cnc(-c3cncc4ccc(F)c(Cl)c34)c(F)c2n1)[C@@]12CCCN1C[C@H](F)C2 [Example 85, 7-(5-Chloro-6-fluoroisoquinolin-4-yl)-8-fluoro-4-((1S,7R,8S)-8-fluoro-2-azabicyclo[5.1.0]octan-2-yl)-2-(((2R,7aS)-2-fluorotetrahydro-1H-pyrrolizin-7a(5H)-yl)methoxy-d2)pyrido[4,3-d]pyrimidine]
50 to 500 nM | [2H]C([2H])(Oc1nc(N2CCO[C@H]3C[C@H]32)c2cnc(-c3cc(N)cc4cc(F)c(F)c(C#C)c34)c(F)c2n1)[C@@]12CCCN1C[C@H](F)C2 [Example 32, 4-(4-((1S,6R)-2-Oxa-5-azabicyclo[4.1.0]heptan-5-yl)-8-fluoro-2-(((2R,7aS)-2-fluorotetrahydro-1H-pyrrolizin-7a(5H)-yl)methoxy-d2)pyrido[4,3-d]pyrimidin-7-yl)-5-ethynyl-6,7-difluoronaphthalen-2-amine]
< 50 nM | [2H]C([2H])(F)Oc1c(F)ccc2cccc(-c3ncc4c(N5CCOC[C@H]6[C@H](F)[C@H]65)nc(OC([2H])([2H])[C@@]56CCCN5C[C@H](F)C6)nc4c3F)c12 [Example 80, (1S,7S,8S)-8-Fluoro-2-(8-fluoro-7-(7-fluoro-8-(fluoromethoxy-d2)naphthalen-1-yl)-2-(((2R,7aS)-2-fluorotetrahydro-1H-pyrrolizin-7a(5H)-yl)methoxy-d2)pyrido[4,3-d]pyrimidin-4-yl)-5-oxa-2-azabicyclo[5.1.0]octane]
